We go through one molecule from patent publication US20070141714A1, “Method to detect small molecules binding to proteins using surface enhanced Raman scattering (SERS)” (Intel Corporation, priority 2005, published 2007).

One test addresses protein kinase A (PKA) (Homo sapiens, UniProt P17612). Nature of the test: SERS detection of small molecule binding to protein after size exclusion spin column. The conditions noted are these: 2.5 μM H-89, 0.2 mg/mL protein, PKA reaction buffer, 30 minutes at room temperature; flow through, difference of SERS spectra at 70° C. and room temperature. The procedure:
In FIG. 2 small molecules and proteins are mixed in a purification column such as a size exclusion spin column and are allowed to incubate for a period of time. The incubation times depends on the binding affinity between the small molecule and the protein. Typically an incubation time of 10-30 minutes at room temperature is sufficient. The solvent used in the purification column is preferably chosen to optimize binding between the small molecules and the proteins. For example, PKA reaction buffer (50 mM Tris-HCl, 10 mM MgCl2) is preferably used for optimal binding between PKA and H-89.
For example, molecules with molecular weights below a certain cut-off value are retained in the size-exclusion type purification columns while protein molecules are collected in the flow through. Any small molecules that bind to the protein can also be carried through the column with the protein and recovered in the flow through. Raman spectroscopy using SERS active particles can be used to detect the small molecules in the flow through.
In FIG. 2-2 the small molecules are first released from the proteins in the flow through by, for example, heating the flow through. Raman spectroscopy is then again used to detect the presence of the small molecules in the flow through.
H-89 is a known small molecule inhibitor to protein kinase A (PKA). […]
Background: Size exclusion chromatography separates by hydrodynamic size, large species first.

The next test relates to Histone. Nature of the test: SERS detection of small molecule binding to protein after size exclusion spin column (negative control protein). The following applies: 2.5 μM H-89, 0.2 mg/mL protein, same procedure. The procedure:
(§1) PIERCE ZEBA-ZEBA desalt spin columns (cat #89882) were washed 10 times with methanol and 10 times with purified water. H-89 was then mixed with PKA or control proteins in a PKA reaction buffer (50 mM Tris-HCl, 10 mM MgCl2), making a final H-89 concentration of 2.5 μM and protein concentration of 0.2 mg/mL. This mixture was incubated at room temperature for 30 minutes, added to a desalting size exclusion spin column, and spun at 1500 g for 2 minutes to remove free H-89.
(§2) The silver colloids are aggregated by 0.5M of Lithium Chloride prior to addition of the sample. Ten spectra are collected from the mixture of sample and aggregated silver colloids. The remaining flow through is heated at 70° C. for 10 minutes, and another SERS measurement is performed. The line labeled PKA is the arithmetic difference in the SERS spectrums at 70° C. and room temperature (intensity on the primary y-axis). The main characteristic peaks of H-89 are visible and marked by black arrows.
(§3) The same procedure described above is repeated with other proteins including bovine serum albumin (labeled BSA), immunoglobulin G (labeled IgG), and Histone (labeled as Histone) as negative controls. The SERS spectrum corresponding to H-89 is not seen in any of these controls.

Test [1] has as its target bovine serum albumin (BSA) (Bos taurus, UniProt P02769). The test is described as above. The following applies: 2.5 μM H-89, 0.2 mg/mL protein, same procedure. On the procedure:
as §1, §2, §3

For a further test, the system named is immunoglobulin G (IgG). Described as above. The following applies: 2.5 μM H-89, 0.2 mg/mL protein, same procedure. On the procedure: as §1, §2, §3

bovine serum albumin (BSA), sequence (P02769 25-607): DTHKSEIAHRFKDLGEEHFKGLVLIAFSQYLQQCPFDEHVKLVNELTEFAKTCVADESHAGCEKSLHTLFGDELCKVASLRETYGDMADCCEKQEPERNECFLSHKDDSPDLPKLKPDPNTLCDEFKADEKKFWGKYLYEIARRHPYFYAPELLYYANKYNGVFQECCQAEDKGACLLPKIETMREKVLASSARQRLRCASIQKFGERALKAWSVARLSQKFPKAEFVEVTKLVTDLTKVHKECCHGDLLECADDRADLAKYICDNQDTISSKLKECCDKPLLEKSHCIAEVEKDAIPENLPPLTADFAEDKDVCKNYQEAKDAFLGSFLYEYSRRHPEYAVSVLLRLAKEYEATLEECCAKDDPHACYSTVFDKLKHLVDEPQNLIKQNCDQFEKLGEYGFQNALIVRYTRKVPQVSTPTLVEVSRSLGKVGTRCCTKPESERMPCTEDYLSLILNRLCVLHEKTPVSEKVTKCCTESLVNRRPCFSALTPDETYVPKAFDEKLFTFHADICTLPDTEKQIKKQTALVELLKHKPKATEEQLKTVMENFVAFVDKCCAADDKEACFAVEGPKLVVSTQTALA

For the molecule `O=S(=O)(NCCNC/C=C/c1ccc(Br)cc1)c1cccc2cnccc12` [H-89], the “binding to PKA (characteristic H-89 peaks in SERS difference spectrum)” value at protein kinase A (PKA) is on record as “there was binding of H-89 to PKA”. The “specific binding to Histone (SERS spectrum corresponding to H-89)” value in the test with Histone is recorded as “specific binding of H-89 to the control proteins did not occur”. For the same molecule, the “specific binding to BSA (SERS spectrum corresponding to H-89)” value in test [1] is given as “specific binding of H-89 to the control proteins did not occur”. In addition, the “specific binding to IgG (SERS spectrum corresponding to H-89)” value in the test on immunoglobulin G (IgG) is on record as “specific binding of H-89 to the control proteins did not occur”.
